Test system: K24384-001-R-PDC complex spheroid viability
Assay: Anticancer human tumor K24384-001-R-PDC patient-derived pancreatic adenocarcinoma cell line growth inhibition
Conditions: for IC50: curve of first compound; for viability, T/C: stronger effect = lower value
How it was run: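 Complex spheroids of tumor cells with HUVEC and human MSCs, exposed to iadademstat combined with other agents. Each agent tested in half-log steps from near clinical Cmax (else 10 microM top), DMSO ≤0.25%.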
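Further: spheroids exposed to agents for seven days before luminescence viability reading.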
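Wherever viability, T/C is given: 100% = DMSO vehicle control viability.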

Cn1ncnc1C1c2n[nH]c(=O)c3cc(F)cc(c23)NC1c1ccc(F)cc1 (stereo not given) + NC1CCC(NC2CC2c2ccccc2)CC1
IC50 (second compound 0.1 µM): > 100 nM | IC50 (second compound 0.316 µM): > 100 nM | IC50 (second compound 1 µM): > 100 nM | IC50 (second compound 3.16 µM): > 100 nM | IC50 (second compound 10 µM): > 100 nM | viability, T/C (second compound 0.1 µM, first compound 0.000316 µM): 92.4% | viability, T/C (second compound 0.1 µM, first compound 0.001 µM): 115% | viability, T/C (second compound 0.1 µM, first compound 0.00316 µM): 81.7% | viability, T/C (second compound 0.1 µM, first compound 0.01 µM): 88.6% | viability, T/C (second compound 0.1 µM, first compound 0.0316 µM): 80% | viability, T/C (second compound 0.1 µM, first compound 0.1 µM): 73.7% | viability, T/C (second compound 0.316 µM, first compound 0.000316 µM): 96.5% | viability, T/C (second compound 0.316 µM, first compound 0.001 µM): 92.8% | viability, T/C (second compound 0.316 µM, first compound 0.00316 µM): 104% | viability, T/C (second compound 0.316 µM, first compound 0.01 µM): 93.5% | viability, T/C (second compound 0.316 µM, first compound 0.0316 µM): 104% | viability, T/C (second compound 0.316 µM, first compound 0.1 µM): 72.4% | viability, T/C (second compound 1 µM, first compound 0.000316 µM): 104% | viability, T/C (second compound 1 µM, first compound 0.001 µM): 100% | viability, T/C (second compound 1 µM, first compound 0.00316 µM): 89.5% | viability, T/C (second compound 1 µM, first compound 0.01 µM): 88.7% | viability, T/C (second compound 1 µM, first compound 0.0316 µM): 84.8% | viability, T/C (second compound 1 µM, first compound 0.1 µM): 70.2% | viability, T/C (second compound 3.16 µM, first compound 0.000316 µM): 92.9% | viability, T/C (second compound 3.16 µM, first compound 0.001 µM): 95.2% | viability, T/C (second compound 3.16 µM, first compound 0.00316 µM): 94.6% | viability, T/C (second compound 3.16 µM, first compound 0.01 µM): 98.5% | viability, T/C (second compound 3.16 µM, first compound 0.0316 µM): 98.6% | viability, T/C (second compound 3.16 µM, first compound 0.1 µM): 82.1% | viability, T/C (second compound 10 µM, first compound 0.000316 µM): 85.6% | viability, T/C (second compound 10 µM, first compound 0.001 µM): 105% | viability, T/C (second compound 10 µM, first compound 0.00316 µM): 94.7% | viability, T/C (second compound 10 µM, first compound 0.01 µM): 103% | viability, T/C (second compound 10 µM, first compound 0.0316 µM): 83.1% | viability, T/C (second compound 10 µM, first compound 0.1 µM): 91.6%

NS(=O)(=O)OCC1CC(n2ccc3c(NC4CCc5ccccc54)ncnc32)CC1O (stereo not given) + NC1CCC(NC2CC2c2ccccc2)CC1
IC50 (second compound 0.1 µM): 506 nM | IC50 (second compound 0.316 µM): 517 nM | IC50 (second compound 1 µM): 412 nM | IC50 (second compound 3.16 µM): 445 nM | IC50 (second compound 10 µM): 441 nM | viability, T/C (second compound 0.1 µM, first compound 0.00949 µM): 98.6% | viability, T/C (second compound 0.1 µM, first compound 0.03 µM): 138% | viability, T/C (second compound 0.1 µM, first compound 0.0949 µM): 125% | viability, T/C (second compound 0.1 µM, first compound 0.3 µM): 64.8% | viability, T/C (second compound 0.1 µM, first compound 0.949 µM): 38.5% | viability, T/C (second compound 0.1 µM, first compound 3 µM): 26.1% | viability, T/C (second compound 0.316 µM, first compound 0.00949 µM): 87.6% | viability, T/C (second compound 0.316 µM, first compound 0.03 µM): 142% | viability, T/C (second compound 0.316 µM, first compound 0.0949 µM): 144% | viability, T/C (second compound 0.316 µM, first compound 0.3 µM): 67.9% | viability, T/C (second compound 0.316 µM, first compound 0.949 µM): 34.1% | viability, T/C (second compound 0.316 µM, first compound 3 µM): 26.1% | viability, T/C (second compound 1 µM, first compound 0.00949 µM): 109% | viability, T/C (second compound 1 µM, first compound 0.03 µM): 138% | viability, T/C (second compound 1 µM, first compound 0.0949 µM): 124% | viability, T/C (second compound 1 µM, first compound 0.3 µM): 56.6% | viability, T/C (second compound 1 µM, first compound 0.949 µM): 37.8% | viability, T/C (second compound 1 µM, first compound 3 µM): 27.2% | viability, T/C (second compound 3.16 µM, first compound 0.00949 µM): 93.2% | viability, T/C (second compound 3.16 µM, first compound 0.03 µM): 138% | viability, T/C (second compound 3.16 µM, first compound 0.0949 µM): 118% | viability, T/C (second compound 3.16 µM, first compound 0.3 µM): 59.7% | viability, T/C (second compound 3.16 µM, first compound 0.949 µM): 37.1% | viability, T/C (second compound 3.16 µM, first compound 3 µM): 25.9% | viability, T/C (second compound 10 µM, first compound 0.00949 µM): 91.2% | viability, T/C (second compound 10 µM, first compound 0.03 µM): 116% | viability, T/C (second compound 10 µM, first compound 0.0949 µM): 95.7% | viability, T/C (second compound 10 µM, first compound 0.3 µM): 58.4% | viability, T/C (second compound 10 µM, first compound 0.949 µM): 31.9% | viability, T/C (second compound 10 µM, first compound 3 µM): 13.2%
